These results are taken from ChEMBL document CHEMBL4304775, “Identification and characterization of a novel chemotype for human TLR8 inhibitors” (Eur J Med Chem, 2019).

Structures are written as SMILES. Calls of active or inactive are those of the source. No cut-off for these calls is given here.

Holding throughout (assay type): cell-based
In data set [1] the target is T1, Toll-like receptor 8 (Homo sapiens) (UniProt Q9NR97).
T1 sequence (whole entry): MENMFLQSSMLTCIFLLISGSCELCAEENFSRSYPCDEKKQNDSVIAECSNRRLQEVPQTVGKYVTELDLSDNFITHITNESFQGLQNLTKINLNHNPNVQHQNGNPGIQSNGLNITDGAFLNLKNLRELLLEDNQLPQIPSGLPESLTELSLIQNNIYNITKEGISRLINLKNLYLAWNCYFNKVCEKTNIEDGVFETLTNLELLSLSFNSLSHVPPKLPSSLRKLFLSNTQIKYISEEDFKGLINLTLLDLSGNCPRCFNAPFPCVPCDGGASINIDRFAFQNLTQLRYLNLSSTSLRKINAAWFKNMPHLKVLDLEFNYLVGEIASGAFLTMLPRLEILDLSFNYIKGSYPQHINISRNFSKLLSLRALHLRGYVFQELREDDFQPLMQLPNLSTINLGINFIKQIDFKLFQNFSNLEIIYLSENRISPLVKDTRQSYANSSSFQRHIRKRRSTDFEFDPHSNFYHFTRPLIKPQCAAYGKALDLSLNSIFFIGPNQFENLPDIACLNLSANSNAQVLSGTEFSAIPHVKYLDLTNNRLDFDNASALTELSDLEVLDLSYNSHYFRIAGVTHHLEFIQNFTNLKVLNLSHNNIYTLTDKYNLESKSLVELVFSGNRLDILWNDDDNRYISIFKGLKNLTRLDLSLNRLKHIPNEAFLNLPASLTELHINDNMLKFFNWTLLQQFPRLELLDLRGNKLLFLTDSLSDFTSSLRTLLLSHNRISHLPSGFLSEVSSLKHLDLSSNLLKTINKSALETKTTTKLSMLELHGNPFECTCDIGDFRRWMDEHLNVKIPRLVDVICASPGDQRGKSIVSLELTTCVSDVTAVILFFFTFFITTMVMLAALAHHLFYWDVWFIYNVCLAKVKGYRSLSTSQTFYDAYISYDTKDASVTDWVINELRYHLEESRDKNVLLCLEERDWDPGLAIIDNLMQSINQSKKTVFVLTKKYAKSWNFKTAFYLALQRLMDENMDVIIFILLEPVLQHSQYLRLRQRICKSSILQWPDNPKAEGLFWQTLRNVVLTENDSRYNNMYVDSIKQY
The experiment in a line: Activation of human TLR8 expressed in HEK-Blue cells assessed as increase in NF-kappaB activation at 5 to 25 uM incubated for 24 hrs by quanti-blue SEAP assay.

Data set [2] can be described thus: Cytotoxicity against human HEK-Blue cells transfected with hTLR8 at 25 to 50 uM after 24 hrs by MTT assay.
Data set [3] has as its target T1, Toll-like receptor 8 (Homo sapiens). The experiment in a line: Antagonist activity at human TLR8 expressed in HEK-Blue cells assessed as reduction in CL075-induced NF-kappaB activation at 25 uM incubated for 1 hr followed by CL075-stimulation and measured after 24 hrs by quanti-blue SEAP assay relative to control.
Data set [4] deals with Toll-like receptor 2 (Homo sapiens) (UniProt O60603). Briefly: Antagonist activity at TLR2 in human THP1 cells assessed as inhibition of Pam2CSK4/Pam3CSK4-induced IL-8 secretion preincubated for 1 hr followed by Pam2CSK4/Pam3CSK4 stimulation and measured after 24 hrs by ELISA. Particulars: concentration not given here. Background: ELISA stands for enzyme-linked immunosorbent assay.
Toll-like receptor 2 (Homo sapiens), sequence (O60603 whole entry): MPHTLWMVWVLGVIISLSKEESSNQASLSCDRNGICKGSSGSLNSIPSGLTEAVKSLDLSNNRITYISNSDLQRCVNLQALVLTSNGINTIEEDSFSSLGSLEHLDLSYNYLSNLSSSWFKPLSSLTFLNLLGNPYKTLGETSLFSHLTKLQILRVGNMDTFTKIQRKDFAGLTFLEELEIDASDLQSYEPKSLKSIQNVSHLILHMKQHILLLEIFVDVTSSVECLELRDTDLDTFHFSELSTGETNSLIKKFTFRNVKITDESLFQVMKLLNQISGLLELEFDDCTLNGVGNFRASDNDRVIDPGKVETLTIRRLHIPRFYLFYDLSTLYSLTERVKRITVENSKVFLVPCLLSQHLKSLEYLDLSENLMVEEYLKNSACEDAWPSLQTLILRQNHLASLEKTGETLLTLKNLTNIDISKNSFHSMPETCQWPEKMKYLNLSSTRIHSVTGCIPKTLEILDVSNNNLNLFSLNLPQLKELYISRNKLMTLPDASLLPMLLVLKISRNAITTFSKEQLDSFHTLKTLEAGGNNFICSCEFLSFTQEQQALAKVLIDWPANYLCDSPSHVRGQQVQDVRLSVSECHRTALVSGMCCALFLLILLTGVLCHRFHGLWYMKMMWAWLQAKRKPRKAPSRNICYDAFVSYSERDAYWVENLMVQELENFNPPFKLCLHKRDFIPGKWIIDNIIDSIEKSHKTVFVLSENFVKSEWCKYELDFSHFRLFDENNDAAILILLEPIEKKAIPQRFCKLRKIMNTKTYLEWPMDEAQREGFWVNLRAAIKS

The inhibition is the drop in the measured response relative to a control, in per cent.

As to `Cc1[nH]c2ccccc2c1C(=O)C(=O)NCc1ccncc1`, the outcome in data set [1] was inactive. Moreover, in data set [2], the Activity result was “Non-Toxic”. Further, the figures for the inhibition in data set [3] and in data set [4] were less than 50% and 40%, respectively.

Turning to `CCOC(=O)c1ccc(NC(=O)C(CC)Sc2nc3ccccc3[nH]2)cc1` (stereo not given), in data set [1], the outcome was inactive. Further, the Activity entry in data set [2] is given as “Non-Toxic”. Also, the inhibition in data set [3] was less than 50%.

With `Oc1nc2ccccc2n1Cc1ccccc1`, in data set [1], the outcome was inactive. Also, the Activity entry in data set [2] is reported as “Non-Toxic”.

In the case of `CC(C)OC(=O)CSc1nc2ccc[nH]c-2n1`, the outcome in data set [1] was inactive. In data set [2], the Activity result is listed as “Non-Toxic”.

With `CCCCC(=O)c1c(C)[nH]c2ccccc12`, the result in data set [1] was inactive. For the same molecule, the Activity entry in data set [2] was “Non-Toxic”.

Turning to `C=CCNc1nc(-c2ccco2)cc(C(F)(F)F)n1`, the outcome in data set [1] was inactive. For the same molecule, the Activity result in data set [2] is “Non-Toxic”.

For the molecule `C=CCNc1nc(C)nc(N2NC(C)=CC2C)n1` (stereo not given), the result in data set [1] was inactive. Moreover, the Activity result in data set [2] was “Non-Toxic”.

On to `CCn1cc(-c2cc(C(F)(F)F)nc(NCc3ccco3)n2)cn1`, for which, in data set [1], the result was inactive. Moreover, the Activity entry in data set [2] is “Non-Toxic”.

On to `COc1ccc(NC(=O)c2[nH]nc3ccccc23)cn1`, for which, in data set [1], the result was inactive. Also, the Activity entry in data set [2] is reported as “Non-Toxic”.

Take `CCCSc1nc2ccccc2[nH]1`: the outcome in data set [1] was inactive. In addition, the Activity entry in data set [2] is recorded as “Non-Toxic”.

Take `CCCCCCn1c(=O)[nH]c2ccccc21`: the outcome in data set [1] was inactive. The Activity entry in data set [2] is listed as “Non-Toxic”.
